Experiments:
[1] = test system: urethane-anesthetized rats, acetic acid model; experiment: Cystometry in acetic acid bladder hyperactivity model; assay type: in vivo, rat; settings: for Effect on intercontraction interval (ICI): any tested dose i.v., 20, 40 or 60 min after administration
Protocol: As used herein, the term “acute” means that the animals were dosed only one time, 30 minutes prior to taking the cystometry measurements (i.e., 30 minutes prior to the observation period). The acetic acid-induced model is an irritative model in which increased micturition frequency (decreased micturition interval) and reduced bladder capacity cystometry may be obtained after an intravesical infusion of a dilute solution of acetic acid (McMurray G, Casey J H, Naylor A M. Animal models in urological disease and sexual dysfunction. Br J Pharmacol. 2006; 147 Suppl:S62; Kakizaki H, de Groat W C. Role of spinal nitric oxide in the facilitation of the micturition reflex by bladder irritation. J Urol 1996; 155:355).
Adult female Wistar rats (Janvier, Le Genest Saint Lisles, France), weighing 225-250 g were used. They were delivered to the laboratory at least 5 days before the experiments in order to be acclimatized to laboratory conditions, and were given food (Teklad Global 16% Protein Rodent Diet, Harlan, Gannat, France) and water ad libitum. The animal room was maintained at 21-24° C. with a 12/12 hours alternating light-dark cycle (light phase 07:00-19:00).
Rats were anesthetized by intraperitoneal injection of urethane (1.5 g/kg). After making a midline incision of the abdomen, a polyethylene catheter (0.3 mm ID and 0.7 mm OD) was implanted in the bladder through the dome. An IV catheter (0.58 mm ID and 0.96 mm OD) was also introduced into a jugular vein for test substance administration.
CB2-receptor-selective agonists (compounds of Formulas II, III and IV) were initially dissolved in a vehicle containing a co-solvent mixture of Cremophor EL® (70%, BASF Corporation, Florham Park, N.J.) and ethanol (30%) as a 20-fold concentrated stock solution of the highest dose for testing. For lower doses, individual 20× stock solutions in Cremophor EL® (70%) and ethanol (30%) were also prepared by further dilution of the original 20× stock solution. Just prior to use, the appropriate 20× compound stock solution or vehicle was diluted 1:20 dilution (v:v) with saline to give the appropriate final concentration for dosing, and a single test substance or its vehicle were administered intravenously in a volume of 5 ml/kg and at an infusion rate of 0.2 ml/min.
Cystometric investigations were performed in the urethane anesthetized rats after bladder and jugular vein catheter implantation surgery. The bladder catheter was connected via a T-tube to a MX 860 Novatrans III Gold strain gauge (Medex Medical SARL, Nantes-Carquefou, France) and to a single-syringe infusion pump (70-2208 Model II Plus, Harvard Apparatus; Les Ulis, France). Physiological saline or 0.2% acetic acid (AA) in saline was infused into the bladder at a constant flow rate (0.05 ml/min), and intravesical pressure was recorded continuously using a MacLab/8e interface (ADInstruments Pty Ltd., Castle Hill, Australia) and the Chart software program. After a control period of 30 minutes (to calculate basal values), a single test substance or its vehicle were administered IV and the intravesical pressure was recorded for 1 hour after compound administration.
Intravesical pressure data were analyzed with Microsoft Excel software. The micturition parameters measured were the following: Basal Pressure (“BP,” mmHg); Threshold Pressure (“ThP,” pressure at which micturition occurs, mmHg); Amplitude of Micturition (“AM,” pressure between ThP and Micturition Pressure, mmHg); Intercontraction Interval (“ICI,” time between two subsequent micturitions, sec); Micturition Frequency (“MF,” number of micturition contractions per 15 minute interval); and Area Under the Curve (“AUC” per 15 minute interval, mmHg·sec) was calculated from the lowest intravesical pressure value during the 15 minute interval. Bladder capacity (“BC”) was measured in ml.
For each rat, basal values for each parameter were calculated as the mean of the last four micturitions before vehicle or test substance administration. […]

CB1 receptor = CB1 receptor (Homo sapiens, UniProt P21554); experiment: biochemical; assay type: binding; settings: displaces 50% of a radiolabeled agonist
CB2 receptor = CB2 receptor (Homo sapiens, UniProt P34972); experiment: CB2 binding assay (displacement of radiolabeled agonist); settings: for IC50: displaces 50% of a radiolabeled agonist
CB2 receptor, sequence (P34972 whole entry): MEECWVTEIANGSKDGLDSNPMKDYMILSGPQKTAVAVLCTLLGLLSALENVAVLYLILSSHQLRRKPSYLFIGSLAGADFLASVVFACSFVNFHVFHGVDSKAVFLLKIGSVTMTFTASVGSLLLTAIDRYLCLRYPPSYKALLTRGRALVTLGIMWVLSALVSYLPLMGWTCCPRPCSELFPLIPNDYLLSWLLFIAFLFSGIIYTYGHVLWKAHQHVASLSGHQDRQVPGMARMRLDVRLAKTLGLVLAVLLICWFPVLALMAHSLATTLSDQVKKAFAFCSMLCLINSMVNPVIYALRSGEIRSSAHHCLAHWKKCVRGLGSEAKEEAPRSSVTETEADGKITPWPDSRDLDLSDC

CB1 receptor, sequence (P21554 whole entry): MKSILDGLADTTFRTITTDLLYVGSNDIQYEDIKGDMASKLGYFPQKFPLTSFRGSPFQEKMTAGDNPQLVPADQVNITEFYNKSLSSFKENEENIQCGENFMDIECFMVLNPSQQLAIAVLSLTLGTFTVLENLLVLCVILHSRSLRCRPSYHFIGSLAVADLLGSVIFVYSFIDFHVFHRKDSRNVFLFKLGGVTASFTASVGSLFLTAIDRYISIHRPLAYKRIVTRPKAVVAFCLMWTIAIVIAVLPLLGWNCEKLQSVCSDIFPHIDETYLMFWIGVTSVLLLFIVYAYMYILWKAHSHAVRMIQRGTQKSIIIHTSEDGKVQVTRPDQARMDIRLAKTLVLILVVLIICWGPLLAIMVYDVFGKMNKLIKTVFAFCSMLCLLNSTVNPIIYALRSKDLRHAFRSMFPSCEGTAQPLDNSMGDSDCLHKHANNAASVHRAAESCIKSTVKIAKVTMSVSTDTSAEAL

CCCCCCC(C)(C)c1cc(O)c2c(c1)OC1CCCCCC21 (centres unmarked) [Formula III]
Effect on threshold pressure (ThP) ([1]; 3 mg/kg i.v., all time points, vs basal values): significantly increased | Effect on basal pressure (BP) ([1]; 3 mg/kg i.v., from 0 to 60 min, p<0.05): significantly increased | Effect on intercontraction interval (ICI) ([1]; vs basal values): no effect | IC50 (CB1 receptor): 0.092 µM | CB2/CB1 affinity ratio (CB2 receptor): 14 | IC50 (CB2 receptor): 0.0065 µM

CCCCC(C)(C)c1cc(O)c([C@H]2C=C(CO)[C@H]3C[C@@H]2C3(C)C)c(O)c1 [Formula II]
Effect on threshold pressure (ThP) ([1]; 0.5 mg/kg i.v., at 20, 40 and 60 min, p<0.05): Significant increases | Effect on threshold pressure (ThP) ([1]; 1.5 mg/kg i.v., at 40 min, p<0.05): Significant increases | Effect on threshold pressure (ThP) ([1]; 5 mg/kg i.v., at 20 and 40 min, p<0.05): Significant increases | Effect on basal pressure (BP) ([1]; 5 mg/kg i.v., at 20 min, p<0.05): significantly increased | Effect on intercontraction interval (ICI) ([1]; vs basal values): no effect | IC50 (CB1 receptor): 0.181 µM | CB2/CB1 affinity ratio (CB2 receptor): 21 | IC50 (CB2 receptor): 0.0084 µM

O=S(=O)(NCC1CC1)c1ccc(Nc2ccc(Cl)cc2Cl)cc1C(F)(F)F [Formula IV, N-Cyclopropylmethyl-4-(2,4-dichloro-phenylamino)-2-trifluoromethyl-benzenesulfonamide]
Effect on threshold pressure (ThP) ([1]; 15 mg/kg i.v., at 20 min, vs basal values): significant increase | Effect on basal pressure (BP) ([1]; any dose (1.5, 5, 15 mg/kg i.v.) or time point, vs basal values): not changed | Effect on intercontraction interval (ICI) ([1]; vs basal values): no effect | IC50 (CB1 receptor): 0.313 µM | CB2/CB1 affinity ratio (CB2 receptor): 10 | IC50 (CB2 receptor): 0.03 µM

Reference: patent publication US20090312414A1, “Treatment Of Lower Urinary Tract Dysfunction With CB2-Receptor-Selective Agonists” (priority 2008, published 2009)
